In one experiment the test system is Naegleria fowleri. In words: Antiparasitic activity against Naegleria fowleri NF69 (ATCC 30215) assessed as parasitic growth inhibition at 10 uM incubated for 48 hrs by CellTiter-Glo based BioTek microplate reader analysis relative to control. It is filed as functional. The arrangement: scale not given: the % may be the effect or the level left. (In general: In ATP-based viability assays light output follows the ATP content of the culture.)

The target of the next experiment is Acetylcholinesterase (Homo sapiens, UniProt P22303). In words: Competitive inhibition of AChE (unknown origin).
For experiment [1], the system named is HeLa. In words: Antiproliferative activity against human HeLa cells assessed as inhibition of cell proliferation. It is filed as functional, cell-based.
For the next experiment, the system named is Escherichia coli. In words: Antibacterial activity against Escherichia coli assessed as diameter of inhibition zone. In kind it is functional.
For a further experiment, the system named is Bacillus cereus. In words: Antibacterial activity against Bacillus cereus assessed as diameter of inhibition zone. In kind it is functional.
A further experiment has as its system Staphylococcus aureus. In words: Antibacterial activity against Staphylococcus aureus assessed as diameter of inhibition zone. It is filed as functional.
The test system of the next experiment is Pseudomonas aeruginosa. In words: Antibacterial activity against Pseudomonas aeruginosa assessed as diameter of inhibition zone. In kind it is functional.
Experiment [2] has as its system HeLa. In words: Cytotoxicity against human HeLa cells assessed as reduction in cell viability. In kind it is functional, cell-based.
Another experiment concerns MCF7. The experiment is described as follows: Cytotoxicity against human MCF7 cells assessed as reduction in cell viability. It is filed as functional, cell-based.
The subject of a further experiment is A549. In words: Cytotoxicity against human A549 cells assessed as reduction in cell viability. It is filed as functional.

The values that follow come from ChEMBL document CHEMBL6078661, “Alkaloids from Mackinlaya species and synthetic mackinazolinone derivatives: An overview” (Bioorg Med Chem, 2025).

Sequence of Acetylcholinesterase (P22303 whole entry): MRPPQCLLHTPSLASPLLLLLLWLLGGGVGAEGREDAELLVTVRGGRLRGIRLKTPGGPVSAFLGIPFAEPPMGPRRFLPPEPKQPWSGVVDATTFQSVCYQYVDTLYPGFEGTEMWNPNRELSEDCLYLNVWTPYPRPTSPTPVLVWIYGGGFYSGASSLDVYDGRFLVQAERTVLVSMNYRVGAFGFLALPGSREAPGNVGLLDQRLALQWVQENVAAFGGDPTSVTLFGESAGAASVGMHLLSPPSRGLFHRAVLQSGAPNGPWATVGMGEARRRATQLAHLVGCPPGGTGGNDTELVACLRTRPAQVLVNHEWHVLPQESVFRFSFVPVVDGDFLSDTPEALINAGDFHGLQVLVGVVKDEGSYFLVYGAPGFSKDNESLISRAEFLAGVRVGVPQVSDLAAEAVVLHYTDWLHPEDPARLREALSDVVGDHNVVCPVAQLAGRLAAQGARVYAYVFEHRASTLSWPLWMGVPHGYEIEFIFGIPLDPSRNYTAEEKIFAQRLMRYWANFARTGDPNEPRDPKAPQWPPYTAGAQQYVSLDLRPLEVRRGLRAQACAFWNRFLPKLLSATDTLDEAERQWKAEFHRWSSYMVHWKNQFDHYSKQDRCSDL

As for `CN1CCC[C@@H]2c3nc4ccc(Cl)cc4c(=O)n3CC[C@H]21`, the Activity in the experiment on Naegleria fowleri amounted to 98.1%. On the same count and under the same terms, to `CN1CCC[C@@H]2c3nc4cc(C(F)(F)F)ccc4c(=O)n3CC[C@H]21` belongs 96.8%; to `CN1CCC[C@H]2c3nc4ccc(C#N)cc4c(=O)n3CC[C@H]21`, 98.2%. Regarding `O=c1c2nc(-c3ccc(C(F)(F)F)cc3)sc2nc2n1CCCC2`, at Acetylcholinesterase, the IC50 was 1670 nM. For the compound `COc1ccc(/C=C2\CCCn3c2nc2oc(-c4ccc(F)cc4)cc2c3=O)cc1OC`, the 50% inhibitory concentration (IC50) in the experiment on HeLa [1] is 8.46 µM. For the compound `O=C1c2ccccc2NC2=C(/C=N/c3ccccc3O)CCCN12`, the “diameter of the inhibition zone (DIZ)” value is 6 mm with Escherichia coli, 18 mm in the experiment with Bacillus cereus, 18 mm in the experiment with Staphylococcus aureus and 18 mm in the experiment with Pseudomonas aeruginosa. In the case of `O=c1c2nc(-c3cc(Cl)cc(Cl)c3)oc2nc2n1CCCC2`, the IC50 in the experiment on HeLa [2] came to 3.06 µM; with MCF7, 2290 nM. Moreover, the Activity with A549 was 0.75 µM.

The IC50 is the point on the concentration scale where inhibition reaches its midpoint.
